Data as given in patent publication US20140024683A1, “CHLORIDE CHANNEL AND CHLORIDE TRANSPORTER MODULATORS FOR THERAPY IN SMOOTH MUSCLE DISEASES” (priority 2011, published 2014).

Legend:
[1] = system: calcium activated chloride channel; assay: Whole cell voltage clamp, spontaneous transient inward currents (STICs) in a single guinea pig airway smooth muscle cell; assay type: cell-based; settings: about 100 μM bath application after TEA; holding potential about −60 mV
Text: Epithelial denuded guinea pig tracheal rings were suspended in organ baths under 1 g resting tension with continuous digital recordings of muscle force. In separate studies, guinea pig airway smooth muscle cells were enzymatically dispersed and cultured.
Glass-bottom dishes served as a disposable recording chamber. ALA VM-8, an 8-chamber pressure-driven drug application system, was used in a still bath of extracellular salt solution. Whole-cell intracellular voltage recordings under current clamp conditions were performed with a 2-kHz Bessel filter, recording at 10 kHz using an Axopatch 200b amplifier (Axon Instruments, Foster City, Calif., USA). Electrodes were pulled using a P-97 micropipette puller from 1.5-mm OD borosilicate capillary glass (Sutter Instruments, Novato, Calif., USA). Glass electrode resistances ranged from 5 to 10 MO with intracellular solution. Whole-cell intracellular current recordings under voltage-clamp conditions were performed with a 2-kHz Bessel filter, recording at 10 kHz using an Axopatch 200b amplifier. For current measurements (FIG. 11) intracellular solutions consisted of (in mM) 140 TEA-Cl, 5 MgATP, 5 EGTA, 1 MgCl2, 10 HEPES, and 5 CaCl2 (pH 7.2). […] TEA-Cl was included in the buffer to enhance STICs which were then recorded during the addition of 100 μM niflumic acid. […] All recordings were analyzed on Clampfit 8.0 software (Molecular Devices).

[2] = system: human airway smooth muscle cells; assay: FLIPR potentiometric dye membrane potential assay (Examples 9, 12); assay type: cell-based; settings: 100 μM
Experimental: To determine whether blockade of CaCCs or NKCCs induce membrane potential changes in cultured human airway smooth muscle cells, the FLIPR in vitro fluorescent dye assay (Molecular Devices) was used as described by Wafford et al. (2009). Briefly, human airway smooth muscle cells were grown to 100% confluence in 96-well black-walled plates and were washed with warmed (37° C.) normal-chloride buffer [consisting of (in mM) 130 sodium chloride, 2 CaCl2, 1 MgCl2, 10 D-glucose, and 10 HEPES, pH 7.4] four times. A stock solution (100% dye) of FLIPR blue dye (Molecular Devices) was prepared by reconstitution of 1 vial (125 mg) with 100 ml of the normal-chloride buffer (assay buffer). A 50% working stock was prepared by further diluting the reconstituted blue dye 1:1 with assay buffer and was used to load cells (90 μl/well) over 20 minutes at 37° C. All reagents were dissolved in assay buffer. Baseline fluorescence was measured for 3 minutes prior to the first control additions (assay buffer). […] The fluorescence produced by membrane potential change following solution additions was quantified after subtracting changes induced by assay buffer alone.

[3] = system: rat lung slices; assay: Airway lumen area in peripheral small airways of rat lung slices; settings: 100 μM NFA; TEA-induced contraction
Experimental: The measurement of airway contraction of a luminal area of small lung airways using the ex vivo rat lung slice method was performed as described (Perez-Zoghbi et al., 2007). The trachea was cannulated with an intravenous catheter, and after the chest cavity was opened, the collapsed lungs were reinflated with 1.3±0.1 ml of 2% agarose (low-gelling temperature) in Sigma-Hanks' Balanced Salt solution (sHBSS), followed by the injection of 0.2±0.1 of air to flush the agarose-sHBSS out of the airways and into the distal alveolar space. Subsequently, a warm (37° C.) solution of gelatin (type A, porcine skin, 300 bloom, 6% in sHBSS) was perfused through the intrapulmonary blood vessels via the pulmonary artery by injecting about 0.3 ml into the right ventricle. The warm agar and gelatin were gelled with cold sHBSS. A single lung lobe was removed and cut into serial sections of about 130 μm thick with a vibratome at about 4° C., starting at the lung periphery. Slices were maintained in DMEM (Invitrogen) at 37° C. and 10% CO2 for up to 3 days. At 37° C., the gelatin in the blood vessel lumen dissolved, leaving the blood vessel lumen empty. Lung slices were mounted in a custom-made perfusion chamber and held in place with a small sheet of nylon mesh. A second cover glass edged with silicone grease was placed over the lung slice. Perfusion of the lung slice was performed using a gravity-fed perfusion system. The volume of the chamber was about 100 μl with a perfusion rate of about 800 μl/min. […] Digital images were recorded in time lapse (30 frames/min). The area of the bronchiole and arteriole lumen was calculated, from each image, by pixel summing using custom-written software. Experiments were performed at room temperature.

[4] = system: guinea pig tracheal rings; assay: Attenuation of the initiation of an acetylcholine contraction by pretreatment, guinea pig tracheal rings; settings: pretreatment with single agent alone
Experimental: Animal protocols were approved by the Columbia University Animal Care and Use Committee. Male Hartley guinea pigs weighing approximately 400 g were anesthetized with intraperitoneal injection of sodium pentobarbital (100 mg/kg). Trachea were removed and transferred to ice cold Krebs-Henseleit (KH) buffer of the following composition (in mM): NaCl 118, KCl 5.6, CaCl2 0.5, MgSO4 0.24, NaH2PO4 1.3, NaHCO3 25, glucose 5.6, pH 7.4. Epithelial-denuded tracheal rings were prepared using a dissecting microscope. Epithelium was removed by gently passing cotton fibers through the lumen of the tracheal rings. The rings were suspended in 4 mL-water jacketed organ baths (37° C.: Radnoti Glass Technology, Monrovia, Calif.) and connected to a Grass FT03 force transducer (Grass Telefactor, West Warwick, R.I.) using silk sutures. The transducers were coupled to the computer with BioPac hardware and data was collected using Acqknowledge 7.3.3 software (BioPac Systems, Goleta, Calif.). KH buffer was bubbled with a gas mixture of 95% oxygen and 5% carbon dioxide and buffer was exchanged every 15 minutes for 1 hour during equilibration of tracheal rings at 1 g resting tension. […].
Compounds 1 and 13 were tested for their abilities to attenuate the initiation phase of an acetylcholine contraction, as acetylcholine is a natural bronchoconstrictor and prevention of contraction would have clinical utility. […]

O=C(O)c1cccnc1Nc1cccc(C(F)(F)F)c1 [niflumic acid]
spontaneous transient inward currents (STICs) [1]: abolishes STIC's
membrane potential change (FLIPR) [2]: hyperpolarized the cell membrane
membrane potential change (FLIPR) ([2]; listed as NFA): hyperpolarizes the airway smooth muscle cell plasma membrane
relaxation of TEA-contracted peripheral airway (lumen area) [3]: significantly relaxes the peripheral airway contracted with TEA

CCCCNc1cc(C(=O)O)cc(S(N)(=O)=O)c1Oc1ccccc1 [bumetanide]
attenuation of the initiation of an acetylcholine contraction [4]: failed to significantly attenuate a contraction
